Article PMC12645998, “Optimization of VE607 to generate analogs with improved neutralization activities against SARS-CoV-2 variants” (Journal of Virology, 2025)
Like-named read-outs stand apart in the source and are kept apart here.

How the values were obtained:
[1] = tested on: SARS-CoV-2 KP.3.1.1 Spike pseudovirus; assay: organism not typed; type: cell-based; settings: read-out: IC50 KP.3.1.1
[2] = tested on: SARS-CoV-2 BA.2.86 Spike pseudovirus; assay: organism not typed; type: cell-based; settings: read-out: IC50 BA.2.86
[3] = tested on: pseudoviral particles bearing the Spike glycoprotein from SARS-CoV-2; assay: microbe, parasite or virus in culture; type: cell-based; settings: pseudovirus, 293T-ACE2 cells, compounds up to 100 µM
[4] = tested on: authentic SARS-CoV-2 XBB.1; assay: microbe, parasite or virus in culture; type: cell-based; settings: Severe acute respiratory syndrome coronavirus 2, Vero C1008, read-out: IC50 authentic SARS-CoV-2 XBB.1
[5] = tested on: SARS-CoV-2 EG.5.1 Spike pseudovirus; assay: organism not typed; type: cell-based; settings: read-out: IC50 EG.5.1
[6] = tested on: SARS-CoV-2 BA.4/5 Spike pseudovirus; assay: organism not typed; type: cell-based; settings: read-out: IC50 BA.4/5
[7] = tested on: SARS-CoV-2 XBB.1.5 Spike pseudovirus; assay: organism not typed; type: cell-based; settings: read-out: IC50 XBB.1.5
[8] = tested on: pseudoviral particles carrying SARS-CoV-1 S; assay: microbe, parasite or virus in culture; type: cell-based
[9] = tested on: SARS-CoV-2 XBB.1.16 Spike pseudovirus; assay: organism not typed; type: cell-based; settings: read-out: IC50 XBB.1.16
[10] = tested on: SARS-CoV-2 JN.1 Spike pseudovirus; assay: organism not typed; type: cell-based; settings: read-out: IC50 JN.1
[11] = tested on: SARS-CoV-2 XEC Spike pseudovirus; assay: organism not typed; type: cell-based; settings: read-out: IC50 XEC
[12] = tested on: SARS-CoV-2 HK.3 Spike pseudovirus; assay: organism not typed; type: cell-based; settings: read-out: IC50 HK.3
[13] = tested on: pseudoviral particles carrying VSV-G; assay: microbe, parasite or virus in culture; type: cell-based; settings: Vesicular stomatitis virus
[14] = tested on: SARS-CoV-2 B.1.1.7 Spike pseudovirus; assay: organism not typed; type: cell-based; settings: read-out: IC50 B.1.1.7
[15] = Solubility in phosphate-buffered saline
[16] = Severe acute respiratory syndrome coronavirus 2, 293T/ACE2, read-out: IC50 SARS-CoV-2, Table 1
[17] = Severe acute respiratory syndrome coronavirus, 293T/ACE2, read-out: IC50 SARS-CoV-1
[18] = 293T/ACE2, read-out: IC50 VSV-G

Structure (SMILES)	IC50 [3, 16] [µM]	IC50 [8, 17] [µM]	IC50 [13, 18] [µM]	further results
O[C@@H](COc1cccc(OC[C@H](O)CN2CCCCC2)c1)CN1CCCCC1 [(R,R)-VE607, reference compound]	0.98	0.8	> 100	IC50 [1]: 4.68 µM; IC50 [2]: 2.64 µM; IC50 [4]: 58.6 µM; IC50 [5]: 1.31 µM; IC50 [6]: 5.78 µM; IC50 [7]: 0.99 µM; IC50 ([8]; read-out: IC50 SARS-CoV-1): 0.89 µM; IC50 [9]: 2.03 µM; IC50 [10]: 6.4 µM; IC50 [11]: 3.9 µM; IC50 [12]: 3.88 µM; IC50 ([13]; 293T/ACE2, read-out: IC50 VSVG): > 100 µM; IC50 [14]: 1.17 µM
CN(C)C[C@@H](O)COc1cccc(OC[C@H](O)CN(C)C)c1 [Compound 15]	1.64	2.54	70.7	–
O[C@@H](COc1cccc(OC[C@H](O)CN2CCOCC2)c1)CN1CCOCC1 [Compound 16]	> 100	> 100	> 100	–
CN1CCN(C[C@@H](O)COc2cccc(OC[C@H](O)CN3CCN(C)CC3)c2)CC1 [Compound 17]	1.76	19.9	74.9	–
Cc1cccc(N2CCN(C[C@@H](O)COc3cccc(OC[C@H](O)CN4CCN(c5cccc(C)c5)CC4)c3)CC2)c1 [Compound 18]	–	–	–	Solubility in phosphate-buffered saline (PBS) [15]: b Insoluble in phosphate-buffered saline (PBS).
O[C@@H](COc1cccc(OC[C@H](O)CN2CCC(O)(c3ccc(Cl)cc3)CC2)c1)CN1CCC(O)(c2ccc(Cl)cc2)CC1 [Compound 19]	0.52	1.91	1.35	–
CCN(C)C[C@@H](O)COc1cccc(OC[C@H](O)CN(C)CC)c1 [Compound 20]	1.18	0.57	> 100	–
C=CCNC[C@@H](O)COc1cccc(OC[C@H](O)CNCC=C)c1 [Compound 21]	47.9	41.1	> 100	–
COc1ccc(CNC[C@@H](O)COc2cccc(OC[C@H](O)CNCc3ccc(OC)cc3)c2)cc1 [Compound 22]	0.57	1.85	2.85	–
O[C@H](CNCc1ccccc1OC(F)(F)F)COc1cccc(OC[C@H](O)CNCc2ccccc2OC(F)(F)F)c1 [Compound 23]	–	–	–	Solubility in phosphate-buffered saline (PBS) [15]: b Insoluble in phosphate-buffered saline (PBS).
O[C@H](CNC1CCOCC1)COc1cccc(OC[C@H](O)CNC2CCOCC2)c1 [Compound 24]	0.38	> 100	1.38	–
CNC[C@@H](O)COc1cccc(OC[C@H](O)CNC)c1 [Compound 25]	> 100	0.45	2.69	–
O[C@@H](COc1cc(Br)cc(OC[C@H](O)CN2CCCCC2)c1)CN1CCCCC1 [Compound 26]	0.44	0.381	2.39	IC50 ([3]; read-out: IC50 SARS-CoV-2, Table 1): 0.443 µM
CCN(CC)C[C@@H](O)COc1cc(Br)cc(OC[C@H](O)CN(CC)CC)c1 [Compound 28]	1.79	17.5	> 100	–
O[C@@H](COc1cc(Br)cc(OC[C@H](O)CN2CCOCC2)c1)CN1CCOCC1 [Compound 29]	2.65	30.5	> 100	–
Cc1cccc(N2CCN(C[C@@H](O)COc3cc(Br)cc(OC[C@H](O)CN4CCN(c5cccc(C)c5)CC4)c3)CC2)c1 [Compound 31]	–	–	–	Solubility in phosphate-buffered saline (PBS) [15]: b Insoluble in phosphate-buffered saline (PBS).
O[C@@H](COc1cc(Br)cc(OC[C@H](O)CN2CCC(O)(c3ccc(Cl)cc3)CC2)c1)CN1CCC(O)(c2ccc(Cl)cc2)CC1 [Compound 32]	–	–	–	Solubility in phosphate-buffered saline (PBS) [15]: b Insoluble in phosphate-buffered saline (PBS).
O[C@H](CNCc1ccccc1)COc1cc(Br)cc(OC[C@H](O)CNCc2ccccc2)c1 [Compound 34]	0.49	0.34	4.71	–
C=CCNC[C@@H](O)COc1cc(Br)cc(OC[C@H](O)CNCC=C)c1 [Compound 35]	0.7	0.62	26.4	–
CC(C)CNC[C@@H](O)COc1cc(Br)cc(OC[C@H](O)CNCC(C)C)c1 [Compound 36]	0.32	0.22	5.05	–
O[C@H](CNCc1ccncc1)COc1cc(Br)cc(OC[C@H](O)CNCc2ccncc2)c1 [Compound 37]	1.37	1.29	3.89	–
COc1ccc(CNC[C@@H](O)COc2cc(Br)cc(OC[C@H](O)CNCc3ccc(OC)cc3)c2)cc1 [Compound 38]	1.03	0.66	4.09	–
O[C@H](CNCc1ccc(OC(F)(F)F)cc1)COc1cc(Br)cc(OC[C@H](O)CNCc2ccc(OC(F)(F)F)cc2)c1 [Compound 39]	–	–	–	Solubility in phosphate-buffered saline (PBS) [15]: b Insoluble in phosphate-buffered saline (PBS).
O[C@H](CNC1CCOCC1)COc1cc(Br)cc(OC[C@H](O)CNC2CCOCC2)c1 [Compound 40]	3.63	0.6	> 100	–
CNC[C@@H](O)COc1cc(Br)cc(OC[C@H](O)CNC)c1 [Compound 41]	1.17	0.31	> 100	–

Structure (SMILES)	IC50 [3, 16] [µM]	IC50 [8, 17] [µM]	IC50 [13, 18] [µM]	further results
O[C@@H](COc1ccccc1)CN1CCCCC1 [Compound 42]	1.35	0.912	> 100	–
CNC[C@@H](O)COc1ccccc1 [Compound 43]	> 100	62.6	> 100	–
CC(C)CNC[C@@H](O)COc1ccccc1 [Compound 44]	> 100	5.95	> 100	–
CN(C)C[C@@H](O)COc1ccccc1 [Compound 45]	> 100	13.9	> 100	–
CCN(C)C[C@@H](O)COc1ccccc1 [Compound 46]	> 100	> 100	> 100	–
CCN(CC)C[C@@H](O)COc1ccccc1 [Compound 47]	> 100	> 100	> 100	–
CN1CCN(C[C@@H](O)COc2ccccc2)CC1 [Compound 48]	> 100	> 100	> 100	–
CNC[C@@H](O)COc1cccc(Br)c1 [Compound 49]	> 100	> 100	> 100	–
CC(C)CNC[C@@H](O)COc1cccc(Br)c1 [Compound 50]	> 100	> 100	> 100	–
CN(C)C[C@@H](O)COc1cccc(Br)c1 [Compound 51]	> 100	17.3	> 100	–
CCN(C)C[C@@H](O)COc1cccc(Br)c1 [Compound 52]	> 100	51.8	> 100	–
CN1CCN(C[C@@H](O)COc2cccc(Br)c2)CC1 [Compound 53]	> 100	> 100	> 100	–
CNC[C@@H](O)COc1cccc(F)c1 [Compound 54]	> 100	55	> 100	–
CC(C)CNC[C@@H](O)COc1cccc(F)c1 [Compound 55]	> 100	> 100	> 100	–
CN(C)C[C@@H](O)COc1cccc(F)c1 [Compound 56]	> 100	19.5	> 100	–
CCN(C)C[C@@H](O)COc1cccc(F)c1 [Compound 57]	> 100	6.17	> 100	–
CCN(CC)C[C@@H](O)COc1cccc(F)c1 [Compound 58]	> 100	> 100	> 100	–
CN1CCN(C[C@@H](O)COc2cccc(F)c2)CC1 [Compound 59]	> 100	> 100	> 100	–
CNC[C@@H](O)COc1cccc(C(C)(C)C)c1 [Compound 60]	> 100	45.5	> 100	–
CC(C)CNC[C@@H](O)COc1cccc(C(C)(C)C)c1 [Compound 61]	> 100	73.7	> 100	–
CN(C)C[C@@H](O)COc1cccc(C(C)(C)C)c1 [Compound 62]	84.7	0.934	> 100	–
CCN(C)C[C@@H](O)COc1cccc(C(C)(C)C)c1 [Compound 63]	> 100	4.66	> 100	–
CCN(CC)C[C@@H](O)COc1cccc(C(C)(C)C)c1 [Compound 64]	> 100	57.4	> 100	–
CN1CCN(C[C@@H](O)COc2cccc(C(C)(C)C)c2)CC1 [Compound 65]	45.7	22	> 100	–
OC(COc1cccc(OCC(O)CN2CCCCC2)c1)CN1CCCCC1 (stereo not shown) [VE607]	2.66	0.74	> 100	–
